Source: US12655123B2, “Heteroaryl compounds, solid forms, preparation methods and uses thereof” (InventisBio Co., Ltd., priority 2022, dated 2026)
≈ marks a conversion by molar mass, not a printed value. Entries after “also recorded” stand apart in the source; their conditions may differ. Where a name gives a salt, the structure may show the parent alone. Blank lines part the entries; values can stand above or below the compound they belong to.

Tests used:
IL23 = details: as tested in PCT/CN2021/140271; read-out: HEK blue IL23 IC50; cited from earlier work
[1] = Dynamic vapor sorption (DVS) analysis; assay type: physicochemical; details: for hygroscopic weight gain / water uptake (DVS): at 90% RH
Protocol: Dynamic Vapor Sorption (DVS) Analysis: Moisture sorption/desorption data was collected on a DVS Intrinsic PLUS (SMS, UK). The sample was placed into a tared sample chamber and automatically weighed. The sample was dried at 40° C. until the dm/dt was less than 0.002% and cooled to 25° C.

[2] = Solubility in bio-relevant media (FaSSIF, FeSSIF, SGF); assay type: physicochemical
Source text: (§1) High Performance Liquid Chromatography (HPLC): a representative HPLC method is shown below, which can be used, for example, to analyze the purity, solubility, and stability of Compound 1 herein.

[3] = Inter-conversion study among identified anhydrates in organic solvents; assay type: physicochemical; details: different organic solvents, RT to 60° C.
Protocol: Inter-conversion study among identified anhydrates (Form I, Form II, Form III, Form IV, Form V, Form VIII, Form X, Form XIII, Form XIV, Form XV) was conducted in different organic solvents between RT to 60° C.

Solid stability = assay type: physicochemical
Source text: as §1

[4] = Slurry bridging studies among Form I, Form III and Form VI under different water activities; assay type: physicochemical; details: versus Form I and Form VI
[5] = Simulated Gastric Fluid (SGF), simulated gastric fluid, thermodynamic from solid, SGF
[6] = thermodynamic from solid, FaSSIF
[7] = thermodynamic from solid, FeSSIF

Compound: [2H]C([2H])([2H])NC(=O)c1nnc(NC(=O)C2CC2)cc1Nc1ncc(Cl)cc1S(C)(=O)=O [Compound 1]
IC50 (IL23): 2.5 nM

hygroscopic weight gain / water uptake (DVS) [1]: about 10%
Compound: [2H]C([2H])([2H])NC(=O)c1nnc(NC(=O)C2CC2)cc1Nc1ncc(Cl)cc1S(C)(=O)=O [sulfate Form A]

hygroscopic weight gain / water uptake (DVS) [1]: about 0.92%
Compound: [2H]C([2H])([2H])NC(=O)c1nnc(NC(=O)C2CC2)cc1Nc1ncc(Cl)cc1S(C)(=O)=O [phosphate Form E]

hygroscopic weight gain / water uptake (DVS) [1]: about 23%
Compound: [2H]C([2H])([2H])NC(=O)c1nnc(NC(=O)C2CC2)cc1Nc1ncc(Cl)cc1S(C)(=O)=O [choline salt Form K]

hygroscopic weight gain / water uptake (DVS) [1]: about 1.0%
solubility ([2]; bio-relevant media (FaSSIF, FeSSIF, SGF), fassgf or other biorelevant, thermodynamic from solid): < 20 µg/mL
Compound: [2H]C([2H])([2H])NC(=O)c1nnc(NC(=O)C2CC2)cc1Nc1ncc(Cl)cc1S(C)(=O)=O [sulfate Form B]

DVS reversibility [1]: Reversible
DVS Wt. gain % ([1]; 0-80% RH): 0.09%, 0-80% RH
DVS Wt. gain % ([1]; 80-90% RH): 0.03%, 80-90% RH
hygroscopic weight gain / water uptake (DVS) [1]: 0.13%
relative stability among anhydrate forms [3]: most stable anhydrate form
solubility at 0.5 h [2, 5]: 7.3 µg/mL (≈ 17.1 µM)
solubility at 2 h [2, 5]: 8.2 µg/mL (≈ 19.2 µM)
solubility at 24 h [2, 5]: 5.7 µg/mL (≈ 13.3 µM)
solubility at 0.5 h [2, 6]: 1.1 µg/mL (≈ 2.57 µM)
solubility at 2 h [2, 6]: 1.1 µg/mL (≈ 2.57 µM)
solubility at 24 h [2, 6]: 1.3 µg/mL (≈ 3.04 µM)
solubility at 0.5 h [2, 7]: 2.6 µg/mL (≈ 6.08 µM)
solubility at 2 h [2, 7]: 3.4 µg/mL (≈ 7.95 µM)
solubility at 24 h [2, 7]: 4.1 µg/mL (≈ 9.58 µM)
water activity up to which the form is more stable ([4]; 25° C.): not more than 0.56
water activity up to which the form is more stable ([4]; 50° C.): ≤ 0.83
Compound: [2H]C([2H])([2H])NC(=O)c1nnc(NC(=O)C2CC2)cc1Nc1ncc(Cl)cc1S(C)(=O)=O [Form III]
Solubility (in words) [2]: low and pH-dependent with higher solubility observed in Simulated Gastric Fluid (SGF)
Solid stability (Solid stability; 40° C./75% RH for 7 d): physically and chemically stable; also recorded: Chemically and physically stable
Solid stability (Solid stability; 60° C. for 7 d): physically and chemically stable; also recorded: Chemically and physically stable
Solid stability (Solid stability; 92.5% RH for 10 d): crystal form remained unchanged; also recorded: Physically stable
